Measured values: patent US8394828B2 (Janssen Pharmaceutica, NV, priority 2003, dated 2013)

Legend:
[1] = target: T1, human VR1 (Homo sapiens, UniProt Q8NER1); experiment: Human VR1 [3H] RTX binding assay; details: 3H-RTX binding; for inhibition at 1 µM / 3H-RTX binding assay % Inhibition @ 1 μM: compound at 1 μM; for Ki: hVR1, read-out: 3H-RTX binding assay Ki hVR1
T1 construct: expressed in transfected cells; host or cells: HEK293
Procedure: Compounds of the present invention were tested for their ability to inhibit the binding of [^3H] RTX to hVR1 receptors in a [^3H]
HEK293 cells were transfected with human VR1 vanilloid receptors and washed with Hank's Balanced Salt Solution, dissociated with cell dissociation buffer (Sigma), and then centrifuged at 1000×g for 5 min. […] The pelleted membranes were kept in an −80° C. freezer.
Approximately 120 μg protein/ml from membranes were incubated with indicated concentrations of [^3H] RTX in 0.5 ml of the HEPES buffer (pH 7.4) containing 0.25 mg/mL fatty acid-free bovine serum albumin at 37° C. for 60 min. […] The tip of the microcentrifuge tube containing the pellet was cut off. Bound radioactivity was quantified by scintillation counting. Non-specific binding was tested in the presence of 200 nM unlabeled RTX.

[2] = target: T1, human VR1; experiment: Human VR1 functional assay (intracellular Ca++, FLIPR, capsaicin challenge); format: cell-based; details: hVR1, capsaicin challenge, read-out: FLIPR functional assay IC50 hVR1
Procedure: The functional activity of the test compounds was determined by measuring changes in intracellular calcium concentration using a Ca^++-sensitive fluorescent dye and FLIPR™ technology.
EC50 or IC50 values were determined from dose-response studies.

T1 sequence (Q8NER1 whole entry): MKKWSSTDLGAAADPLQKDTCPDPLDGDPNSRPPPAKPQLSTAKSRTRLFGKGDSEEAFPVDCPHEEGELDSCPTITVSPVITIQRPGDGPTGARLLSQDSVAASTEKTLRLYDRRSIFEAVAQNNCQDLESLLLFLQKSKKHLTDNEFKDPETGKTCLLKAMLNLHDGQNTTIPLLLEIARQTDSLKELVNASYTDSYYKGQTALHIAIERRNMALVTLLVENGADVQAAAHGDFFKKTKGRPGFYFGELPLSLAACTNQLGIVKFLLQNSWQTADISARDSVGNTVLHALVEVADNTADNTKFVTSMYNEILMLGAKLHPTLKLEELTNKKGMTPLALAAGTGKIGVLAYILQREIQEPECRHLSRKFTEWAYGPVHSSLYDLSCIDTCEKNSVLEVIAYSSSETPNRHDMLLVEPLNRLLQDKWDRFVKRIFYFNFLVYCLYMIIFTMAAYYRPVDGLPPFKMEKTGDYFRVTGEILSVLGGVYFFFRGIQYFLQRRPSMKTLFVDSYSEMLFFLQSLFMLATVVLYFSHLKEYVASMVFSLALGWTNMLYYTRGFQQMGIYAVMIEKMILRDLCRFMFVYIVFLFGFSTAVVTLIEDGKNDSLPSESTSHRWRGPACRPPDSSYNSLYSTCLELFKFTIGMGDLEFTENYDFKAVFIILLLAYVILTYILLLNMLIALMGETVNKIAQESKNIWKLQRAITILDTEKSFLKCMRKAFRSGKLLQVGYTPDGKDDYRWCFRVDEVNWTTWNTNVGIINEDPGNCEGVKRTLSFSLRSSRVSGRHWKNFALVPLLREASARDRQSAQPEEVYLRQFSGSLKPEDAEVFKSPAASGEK

Structure (SMILES)	inhibition at 1 µM [1]	Ki [1]	other results
CN1CCc2cc(C(=O)Nc3cnc4ccccc4c3)ccc21 [1-Methyl-2,3-dihydro-1H-indole-5-carboxylic acid quinolin-3-ylamide]	12%		IC50 [2]: 900 nM
O=C(Nc1cnc2ccccc2c1)c1ccc(N2CCCCC2)cc1 [4-Piperidin-1-yl-N-quinolin-3-yl-benzamide]	60%	61.2 nM	
O=C(Nc1cnc2ccccc2c1)c1ccc(N(CCc2ccccc2)CC2CCCCC2)cc1 [4-(Cyclohexylmethyl-phenethyl-amino)-N-quinolin-3-yl-benzamide]	87%	162 nM	
O=C(Nc1cnc2ccccc2c1)c1ccc(NCC2CCCCC2)cc1Cl [2-Chloro-4-(cyclohexylmethyl-amino)-N-quinolin-3-yl-benzamide]	65%	1130 nM	
CCCCCN(CCCCC)c1ccc(CCC(=O)Nc2cnc3ccccc3c2)cc1 [3-(4-Dipentylamino-phenyl)-N-quinolin-3-yl-propionamide]		153 nM	
CCCCCNc1ccccc1C(=O)Nc1cnc2ccccc2c1 [2-Pentylamino-N-quinolin-3-yl-benzamide]	23%		
O=C(Nc1cnc2ccccc2c1)c1ccc(N2CCC(C(=O)c3ccccc3)CC2)cc1 [4-(4-Benzoyl-piperidin-1-yl)-N-quinolin-3-yl-benzamide]	61%	276 nM	
CCCCCCCN(C)c1ccccc1C(=O)Nc1cnc2ccccc2c1 [2-(Heptyl-methyl-amino)-N-quinolin-3-yl-benzamide]	0%		
O=C(Nc1cnc2ccccc2c1)c1ccc(NC2CCOCC2)cc1 [N-Quinolin-3-yl-4-(tetrahydro-pyran-4-ylamino)-benzamide]	9%		
O=C(Nc1cnc2ccccc2c1)c1ccc(N2CCC3(CC2)OCCO3)cc1 [4-(1,4-Dioxa-8-aza-spiro[4.5]dec-8-yl)-N-quinolin-3-yl-benzamide]	9%		
CC(C)(C)c1ccc(C=CC(=O)Nc2cnc3ccccc3c2)cc1 [3-(4-tert-Butyl-phenyl)-N-quinolin-3-yl-acrylamide]		1.11 nM	
CCCCCN(C)c1ccc(CC(=O)Nc2cnc3ccccc3c2)cc1 [2-{4-(Methyl-pentyl-amino)-phenyl}-N-quinolin-3-yl-acetamide]		1350 nM	
CN(c1cccc(C(=O)Nc2cnc3ccccc3c2)c1)C1CCCCC1 [3-(Cyclohexyl-methyl-amino)-N-quinolin-3-yl-benzamide]	89%	98.2 nM	
O=C(Nc1cnc2ccccc2c1Cl)c1ccc2c(ccn2C2CCCCC2)c1 [1-Cyclohexyl-1H-indole-5-carboxylic acid (4-chloro-quinolin-3-yl)-amide]			IC50 [2]: 166 nM
CC(C)=CCC[C@@H](C)CCN(C)c1ccc(C(=O)Nc2cnc3ccccc3c2)cc1 [R-4-{(3,7-Dimethyl-oct-6-enyl)-methyl-amino}-N-quinolin-3-yl-benzamide]	105%	11.1 nM	
CCCCCN(CCCCC)c1ccc(C(=O)Nc2cnc3ccccc3c2)cc1 [4-Dipentylamino-N-quinolin-3-yl-benzamide]		158 nM	
CC1(C)CCC(C)(C)c2cc(C=CC(=O)Nc3cnc4ccccc4c3Cl)ccc21 [N-(4-Chloro-quinolin-3-yl)-3-(5,5,8,8-tetramethyl-5,6,7,8-tetrahydro-naphthalen-2-yl)-acrylamide]			IC50 [2]: 30 nM
O=C(Nc1cnc2ccccc2c1)c1ccc2c(ccn2C2CCCCC2)c1 [1-Cyclohexyl-1H-indole-5-carboxylic acid quinolin-3-ylamide]			IC50 [2]: 74 nM
CC1(C)CCC(C)(C)c2cc(C(=O)Nc3cnc4ccccc4c3)ccc21 [5,5,8,8-Tetramethyl-5,6,7,8-tetrahydro-naphthalene-2-carboxylic acid quinolin-3-ylamide]		30.4 nM	
O=C(Nc1cnc2ccccc2c1)c1ccc(N2CCC(N3CCCCC3)CC2)cc1 [4-[1,4′]Bipiperidinyl-1′-yl-N-quinolin-3-yl-benzamide]	8%		
CCC(C)(C)c1ccc(CCCC(=O)Nc2cnc3ccccc3c2)cc1 [4-{4-(1,1-Dimethyl-propyl)-phenyl}-N-quinolin-3-yl-butyramide]	65%	527 nM	
CCCCCN(C)c1ccc(C=CC(=O)Nc2cnc3ccccc3c2)cc1 [3-{4-(Methyl-pentyl-amino)-phenyl}-N-quinolin-3-yl-acrylamide]	65%	122 nM	
CN(c1ccc(C(=O)Nc2cnc3ccccc3c2Cl)cc1)C1CCCCC1 [N-(4-Chloro-quinolin-3-yl)-4-(cyclohexyl-methyl-amino)-benzamide]			IC50 [2]: 107 nM
CCCCCN(C)c1ccccc1C(=O)Nc1cnc2ccccc2c1 [2-(Methyl-pentyl-amino)-N-quinolin-3-yl-benzamide]	21%		

Structure (SMILES)	inhibition at 1 µM [1]	Ki [1]	other results
CC1(C)CCC(C)(C)c2cc(C=CC(=O)Nc3cnc4ccccc4c3)ccc21 [N-Quinolin-3-yl-3-(5,5,8,8-tetramethyl-5,6,7,8-tetrahydro-naphthalen-2-yl)-acrylamide]			IC50 [2]: 65 nM
O=C(Nc1cnc2ccccc2c1)c1ccc(N2Cc3ccccc3C2)cc1 [4-(1,3-Dihydro-isoindol-2-yl)-N-quinolin-3-yl-benzamide]	1%		
CC(C)(C)c1ccc(CC(=O)Nc2cnc3ccccc3c2)cc1 [2-(4-tert-Butyl-phenyl)-N-quinolin-3-yl-acetamide]		5760 nM	
O=C(Nc1cnc2ccccc2c1)c1ccc(N2CCCC2)cc1 [4-Pyrrolidin-1-yl-N-quinolin-3-yl-benzamide]	27%		
O=C(Nc1cnc2ccccc2c1)c1ccc(NC2CCCCCC2)cc1 [4-Cycloheptylamino-N-quinolin-3-yl-benzamide]			IC50 [2]: 730 nM
O=C(Nc1cnc2ccccc2c1)c1ccc(N2CC[C@@H]3CCCC[C@H]3C2)cc1 (relative stereo) [trans-4-(Octahydro-isoquinolin-2-yl)-N-quinolin-3-yl-benzamide]	104%	29.2 nM	
CN(c1ccc(C(=O)Nc2cnc3ccccc3c2)cc1)C1CCOCC1 [4-{Methyl-(tetrahydro-pyran-4-yl)-amino}-N-quinolin-3-yl-benzamide]	19%		
O=C(Nc1cnc2ccccc2c1)c1ccc(N2CCCCC2)nc1 [3,4,5,6-Tetrahydro-2H-{1,2′}bipyridinyl-5′-carboxylic acid q] [3,4,5,6-Tetrahydro-2H-{1,2′}bipyridinyl-5′-carboxylic acid quinolin-3-ylamide]			3H-RTX binding assay % Inhibition @ 1 μM [1]: 100%
CN(CC=Cc1ccccc1)c1ccc(C(=O)Nc2cnc3ccccc3c2)cc1 [4-{Methyl-(3-phenyl-allyl)-amino}-N-quinolin-3-yl-benzamide]	79%	125 nM	
CC(C)(C)c1ccc(C#CC(=O)Nc2cnc3ccccc3c2)cc1 [3-(4-tert-Butyl-phenyl)-propynoic acid quinolin-3-ylamide]			IC50 [2]: 66 nM
O=C(Nc1cnc2ccccc2c1)c1ccc(N2CCOCC2)cc1 [4-Morpholin-4-yl-N-quinolin-3-yl-benzamide]	4%		
CC(C)(CCc1ccccc1)c1ccc(CCC(=O)Nc2cnc3ccccc3c2)cc1 [3-{4-(1,1-Dimethyl-3-phenyl-propyl)-phenyl}-N-quinolin-3-yl-propionamide]		15.9 nM	
CCCCC(C)(C)c1ccc(C=CCC(=O)Nc2cnc3ccccc3c2)cc1 [4-{4-(1,1-Dimethyl-pentyl)-phenyl}-but-3-enoic acid quinolin-3-ylamide]	80%	194 nM	
O=C(Nc1cnc2ccccc2c1)c1ccc(N2CCC(c3ccccc3)CC2)cc1 [4-(4-Phenyl-piperidin-1-yl)-N-quinolin-3-yl-benzamide]	34%	29300 nM	
CC(C)(C)c1ccc(CCC(=O)Nc2cnc3ccccc3c2)cc1 [3-(4-tert-Butyl-phenyl)-N-quinolin-3-yl-propionamide]		2.03 nM	
Cc1cc(C(=O)Nc2cnc3ccccc3c2)ccc1NCC1CCCCC1 [4-(Cyclohexylmethyl-amino)-3-methyl-N-quinolin-3-yl-benzamide]	111%	87 nM	
CC1CCCN(c2ccc(C(=O)Nc3cnc4ccccc4c3)cc2)C1 (centres unmarked) [4-(3-Methyl-piperidin-1-yl)-N-quinolin-3-yl-benzamide]	78%		
O=C(Nc1cnc2ccccc2c1)c1ccc(N2CCCCC2)nc1 [3,4,5,6-Tetrahydro-2H-[1,2′]bipyridinyl-5′-carboxylic acid q] [3,4,5,6-Tetrahydro-2H-[1,2′]bipyridinyl-5′-carboxylic acid quinolin-3-ylamide]			3H-RTX binding assay % Inhibition @ 1 μM [1]: 1%
CCCCCN(Cc1ccccc1)c1ccc(C(=O)Nc2cnc3ccccc3c2)cc1 [4-(Benzyl-pentyl-amino)-N-quinolin-3-yl-benzamide]	67%	169 nM	
CCCCCc1ccc(CC(=O)Nc2cnc3ccccc3c2)cc1 [2-(4-Pentyl-phenyl)-N-quinolin-3-yl-acetamide]		2200 nM	
O=C(Nc1cnc2ccccc2c1)c1ccc(N2CCSCC2)cc1 [N-Quinolin-3-yl-4-thiomorpholin-4-yl-benzamide]	41%		
CCC(C)(C)c1ccc(CCC(=O)Nc2cnc3ccccc3c2)s1 [3-{5-(1,1-Dimethyl-propyl)-thiophen-2-yl}-N-quinolin-3-yl-propionamide]		14.2 nM	
CCCCCN(CCCCC)c1ccc(CC(=O)Nc2cnc3ccccc3c2)cc1 [2-(4-Dipentylamino-phenyl)-N-quinolin-3-yl-acetamide]		508 nM	
